Several values for one entry are separate records, joined by “and”; a condition that tells them apart may be missing. Equal entries are not always repeated.
What was measured:
[1] = system: A/Perth/261/2009 (H1N1), H275Y mutation; conditions: mouse, in vivo
[2] = system: NA variants H275Y (H1N1), E119V and R292K (H3N2), R152K (B); test: biochemical; type: biochemical, Influenza virus
[3] = system: H1N1 H275Y (A/Texas/23/2012); type: cell-based, Influenza A virus
[4] = system: A/Texas/23/2012 (H1N1) H275Y; set-up: species or system BALB/c mice; conditions: mouse, in vivo
[5] = system: H3N2 E119V (A/Texas/12/2007); type: cell-based, Influenza A virus
[6] = system: A/Perth/261/2009 (H1N1) H275Y; set-up: species or system BALB/c mice; conditions: mouse, in vivo
[7] = target: NA variants H275Y (H1N1), E119V and R292K (H3N2), R152K (B) (Influenza A virus (H3N2), UniProt D1FVK3, I119V); test: biochemical; type: biochemical
[8] = target: neuraminidase of live influenza A (H3N2) viruses (Influenza A virus, UniProt D1FVK3, I119V); test: biochemical

Compound | Median Survival [1] | Loss in potency against variants (up to) [2] | EC50 [3] | % Survival [1] | Percent Body Weight (grams) [4] | Protection from lethal challenge [4] | EC50 [5] | Survival [6] | Percent Body Weight (grams) ([6]; po) | IC50 [7] | IC50 [8]
CCOC(=O)C1=C[C@@H](OC(CC)CC)[C@H](NC(C)=O)[C@@H](N)C1 [Oseltamivir phosphate] | 7 |  |  |  |  |  |  |  |  |  | 
CCOC(=O)C1=C[C@@H](OC(CC)CC)[C@H](NC(C)=O)[C@@H](N)C1 [Oseltamivir, oseltamivir] |  | > 100 fold | > 100 nM | 20% | 84% and 78% and 100% and 97% and 92% | failed to protect | > 100 nM | no survivors | 89% and 84% and 82% and 74% and 100% and 102% and 99% |  | 
CC(=O)N[C@H]1[C@H]([C@H](O)[C@H](O)CO)OC(C(=O)O)=C[C@@H]1N=C(N)N [Zanamivir, zanamivir] |  | > 10 fold | 93.8 nM |  |  |  | 74 nM |  |  | 3.8 nM | 3.08 nM

Source: patent US12427200B2 (priority 2019, dated 2025)
